Reference: the supplement of paper PMC6045584
± gives the standard deviation of the averaged measurements.

Key:
[1] = compound: T1, CN1CC[C@H](c2c(O)cc(O)c3c(=O)cc(-c4ccccc4Cl)oc23)[C@H](O)C1 [FLAVOPIRIDOL]; experiment: surviving fraction relative to DMSO-only wells; higher = less growth inhibition; conditions: exposure time: 5 days
Outline: (§1)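 Log-phase tumour cell lines, 250–500 cells per well in 384-well plates, received inhibitors at 0.5, 1, 5, 10, 50, 100, 500 and 1000 nM continuously for five days, starting 24 hours after seeding. Viability was quantified with CellTiter-Glo luminescence and normalised to the median of DMSO-only wells to give surviving fraction. Three screens were run per line, and a line stayed in only with replicate Pearson r >0.7 and median Z' >0.3.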

[2] = compound: Oc1ccc(/C=C/c2cc(O)cc(O)c2)cc1 [RESVERATROL]; experiment: as above; conditions: exposure time: 5 days
Outline: as §1

[3] = compound: T1, FLAVOPIRIDOL; experiment: area under dose-response curve of surviving fraction (unscaled, Aref=0) (surviving fraction x log10(nM)); higher = more resistant; conditions: exposure time: 5 days; dose range 0.5-1000 nM
Outline: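 Surviving fractions were fitted by 3-parameter logistic regression in the drc R package to give dose-response survival curves. They came from tumour cell lines treated for five days with eight inhibitor concentrations from 0.5 to 1000 nM and read by CellTiter-Glo luminescence against DMSO-only wells. The area under the curve is the unscaled activity area. It was calculated over log10 dose with Aref = 0.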

| Test System | surviving fraction ([1]; 0.5 nM) | surviving fraction ([1]; 1 nM) | surviving fraction ([1]; 5 nM) | surviving fraction ([1]; 10 nM) | surviving fraction ([1]; 50 nM) | surviving fraction ([1]; 100 nM) | surviving fraction ([1]; 500 nM) | surviving fraction ([1]; 1000 nM) | surviving fraction ([2]; 0.5 nM) | surviving fraction ([2]; 1 nM) | surviving fraction ([2]; 5 nM) | surviving fraction ([2]; 10 nM) | surviving fraction ([2]; 50 nM) | surviving fraction ([2]; 100 nM) | surviving fraction ([2]; 500 nM) | surviving fraction ([2]; 1000 nM) | area under dose-response curve [3] |
| --- | --- | --- | --- | --- | --- | --- | --- | --- | --- | --- | --- | --- | --- | --- | --- | --- | --- |
| HMT3552 BREAST | 1.06 ± 0.041 | 1.05 ± 0.045 | 0.986 ± 0.071 | 0.963 ± 0.027 | 0.232 ± 0.019 | 0.068 ± 0.0027 | 0.066 ± 0.003 | 0.061 ± 0.0027 | 1.06 ± 0.038 | 1.12 ± 0.047 | 1.09 ± 0.027 | 1.03 ± 0.067 | 1.07 ± 0.039 | 1.17 ± 0.056 | 1.12 ± 0.044 | 1.17 ± 0.055 | 1.86 |
| HS578T BREAST | 1.13 ± 0.054 | 1.21 ± 0.13 | 1.19 ± 0.29 | 1.21 ± 0.2 | 0.667 ± 0.08 | 0.0923 ± 0.01 | 0.068 ± 0.0036 | 0.0673 ± 0.0025 | 1.15 ± 0.15 | 1.15 ± 0.036 | 1.24 ± 0.14 | 1.14 ± 0.049 | 1.03 ± 0.074 | 1.27 ± 0.11 | 1.17 ± 0.22 | 1.12 ± 0.19 | 2.13 |
| HMLE3 BREAST | 1.07 ± 0.088 | 0.951 ± 0.097 | 1.16 ± 0.087 | 1.11 ± 0.097 | 0.771 ± 0.074 | 0.131 ± 0.029 | 0.026 ± 0.0036 | 0.0233 ± 0.0015 | 1.01 ± 0.067 | 1.03 ± 0.089 | 1.02 ± 0.051 | 1.03 ± 0.061 | 1.04 ± 0.096 | 1.03 ± 0.13 | 1.06 ± 0.055 | 1.12 ± 0.12 | 2.14 |
| HCC70 BREAST | 1.03 ± 0.06 | 1.02 ± 0.11 | 1.06 ± 0.1 | 1.01 ± 0.11 | 0.784 ± 0.1 | 0.129 ± 0.078 | 0.0557 ± 0.032 | 0.0423 ± 0.019 | 1.09 ± 0.07 | 1.11 ± 0.11 | 1.14 ± 0.13 | 1.04 ± 0.049 | 1.13 ± 0.066 | 1.06 ± 0.054 | 1.11 ± 0.075 | 0.999 ± 0.022 | 2.16 |
| G292 BONE | 0.97 ± 0.068 | 0.987 ± 0.057 | 1.033 ± 0.0078 | 0.995 ± 0.024 | 0.628 ± 0.039 | 0.18 ± 0.0055 | 0.0742 ± 0.0043 | 0.0712 ± 0.0055 | 0.995 ± 0.051 | 0.988 ± 0.011 | 1.06 ± 0.018 | 1.07 ± 0.032 | 1.01 ± 0.027 | 1.055 ± 0.0077 | 1.04 ± 0.017 | 1.03 ± 0.045 | 2.14 |
| HCC38 BREAST | 1.18 ± 0.1 | 1.22 ± 0.13 | 1.33 ± 0.097 | 1.34 ± 0.21 | 1.02 ± 0.15 | 0.571 ± 0.18 | 0.046 ± 0.0053 | 0.0423 ± 0.0093 | 1.21 ± 0.057 | 1.37 ± 0.15 | 1.48 ± 0.13 | 1.56 ± 0.2 | 1.37 ± 0.063 | 1.2 ± 0.16 | 1.24 ± 0.14 | 1.18 ± 0.18 | 2.36 |
| HS57T BREAST | 1.06 ± 0.053 | 1.06 ± 0.015 | 1.12 ± 0.037 | 1.16 ± 0.035 | 0.667 ± 0.018 | 0.0337 ± 0.0025 | 0.036 ± 0.001 | 0.0327 ± 0.0021 | 0.971 ± 0.038 | 1.01 ± 0.073 | 0.984 ± 0.11 | 1.07 ± 0.028 | 1.02 ± 0.034 | 1.04 ± 0.063 | 1.01 ± 0.047 | 0.998 ± 0.11 |  |
